In US20090275085A1, “Enzyme for Obtaining Prebiotic Oligosaccharides” (CONSEJO SUPERIOR DE INVESTIGACIONES CIENTIFICAS, priority 2004, published 2009):

Experiments:
[1] = test system: purified X. dendrorhous enzyme (F-3); test: Glycosyltransferase activity: incubating maltose (240 g/l) with the purified X. dendrorhous enzyme (F-3), HPLC analysis; type: biochemical, Xanthophyllomyces dendrorhous; conditions: for composition of the system: after 288 hours, maltose 240 g/l, 0.7 μg α-glucosidase, pH 5.4, 40° C., 200 rpm; for Composition of the reaction mixture: 240 g maltose/l, 0.2 M sodium acetate pH 5.4, 40° C., 150 rpm
Description: 0.7 μg of α-glucosidase from the pure solution of α-glucosidase corresponding to fraction 3 of TABLE 2 were added. […] Aliquots were extracted at different times and incubated for 5 minutes at 80° C. to inactivate the enzyme. They were diluted to 1:4 (v/v) with water, centrifuged for 5 minutes at 6000 rpm in an Eppendorf tube with a 0.45 μam filter and analyzed by HPLC liquid chromatography.

[2] = test system: X. dendrorhous extracellular fraction α-glucosidase; test: α-glucosidase activity of the X. dendrorhous extracellular (cell-free, F-0) fraction on different glucose polymers, glucose release by glucose oxidase-peroxidase; type: biochemical, Xanthophyllomyces dendrorhous; conditions: for α-glucosidase activity detected on substrate: cell-free fraction (F-0); for Specific activity: X. dendrorhous extracellular fraction (F-0), release of glucose
Description: The production of α-glucosidase activity was analyzed in X. dendrorhous cultures grown in minimal medium for yeasts: 0.7% YNB (Yeast Nitrogen Base w/o Amino acids, DIFCO) (w/v), 2% carbon source. The cultures were carried out in glass flasks incubated at 24° C. and with constant stirring at 160 rpm.
(§1) The cell-free fraction was obtained by centrifugation (F-0) and α-glucosidase activity in this fraction was tested, assessing the release of glucose on different substrates. A […] test and standard methodology were used. The released glucose was quantified using the glucose oxidase-peroxidase coupled reaction: 0.4 ml of the solution to be assessed was mixed with 0.1 ml of A:B solution (20:1) (A: 0.85 U/ml glucose oxidase, 0.40 U/ml peroxidase in sodium phosphate buffer pH 5; B: 0.6% O-dianisidine). It was incubated for 30 minutes at 37° C. and spectrophotometrically quantified at 450 nm. A standard glucose curve (1 to 100 μg/ml) was used. The α-glucosidase activity unit is defined as the amount of enzyme required to release 20 μg/ml of glucose under the described conditions.

[3] = test system: X. dendrorhous α-glucosidase, enzyme purified to homogeneity (F-3); test: α-glucosidase (hydrolytic) activity of the X. dendrorhous F-3 fraction on different substrates; type: biochemical, Xanthophyllomyces dendrorhous; conditions: for hydrolytic activity observed on substrate: enzyme purified to homogeneity (F-3); for Specific activity: F-3 fraction, purified protein, 1% concentration of substrate
Description: as §1
The hydrolytic activity of the enzyme purified to homogeneity (F-3) following the described process was tested on different substrates.

[4] = biological target: X. dendrorhous α-glucosidase (purified enzyme) (Phaffia rhodozyma, UniProt A0A0U2M4R6); test: Kinetic constants of X. dendrorhous α-glucosidase glycosylhydrolase activity; type: biochemical, Xanthophyllomyces dendrorhous; conditions: 30 minutes, 100 ng of enzyme; starch supplied by Avebe, 8100 Da
X. dendrorhous α-glucosidase (purified enzyme), sequence (A0A0U2M4R6 entry or part of it): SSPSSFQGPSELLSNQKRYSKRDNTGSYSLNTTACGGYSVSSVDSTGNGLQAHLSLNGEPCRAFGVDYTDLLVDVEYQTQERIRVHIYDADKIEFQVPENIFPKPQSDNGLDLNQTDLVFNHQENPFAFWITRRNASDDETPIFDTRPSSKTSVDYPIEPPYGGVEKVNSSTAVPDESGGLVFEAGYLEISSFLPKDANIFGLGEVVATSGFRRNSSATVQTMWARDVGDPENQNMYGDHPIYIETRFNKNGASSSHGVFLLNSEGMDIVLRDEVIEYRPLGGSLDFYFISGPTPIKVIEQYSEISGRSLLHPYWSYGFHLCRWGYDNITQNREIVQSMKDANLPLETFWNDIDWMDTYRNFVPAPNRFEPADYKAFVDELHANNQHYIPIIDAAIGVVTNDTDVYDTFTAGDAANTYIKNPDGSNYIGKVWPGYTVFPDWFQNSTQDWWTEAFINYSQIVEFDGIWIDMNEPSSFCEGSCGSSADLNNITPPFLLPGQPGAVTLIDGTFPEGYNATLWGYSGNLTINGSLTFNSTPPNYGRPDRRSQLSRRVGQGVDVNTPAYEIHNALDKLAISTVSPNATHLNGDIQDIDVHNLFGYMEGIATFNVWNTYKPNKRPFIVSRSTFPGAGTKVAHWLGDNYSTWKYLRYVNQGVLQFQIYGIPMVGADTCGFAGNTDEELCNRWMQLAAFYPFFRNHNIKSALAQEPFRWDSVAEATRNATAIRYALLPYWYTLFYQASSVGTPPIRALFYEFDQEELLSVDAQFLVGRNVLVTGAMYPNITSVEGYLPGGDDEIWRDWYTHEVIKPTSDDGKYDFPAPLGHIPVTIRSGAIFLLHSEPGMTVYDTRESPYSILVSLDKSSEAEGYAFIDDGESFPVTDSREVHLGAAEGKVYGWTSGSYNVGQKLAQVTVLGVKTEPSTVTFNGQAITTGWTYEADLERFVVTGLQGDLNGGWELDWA
Description: The tests were carried out in 30 minutes and with 100 ng of enzyme for each reaction. The molecular weight of the starch, supplied by Avebe, is 8100 Da.

X. dendrorhous MYA-131 = test: Degradation of starch in the medium of an X. dendrorhous culture, quantified with Lugol's iodine; type: cell-based, Xanthophyllomyces dendrorhous
Description: X. dendrorhous MYA-131 grown in 100 ml of minimal medium with starch (MMS): 0.7% YNB (Yeast Nitrogen Base w/o Amino acids, DiFCO) (w/v), 2% starch (w/v), DIFCO) was cultured to produce α-glucosidase, and the culture continued for 150 hours. Cell growth was carried out and assessed as in the previous example. The stationary phase was reached after 75 hours of growth, at 3.4 ODU660. The cell-free fraction was obtained every 5-7 hours as in EXAMPLE 1.
To that end, 0.05 ml of the cell-free fraction was mixed with 0.05 ml of 50 mM sodium phosphate buffer, pH 5.5 0.1 ml of Lugol's iodine and 2.5 ml of water were added to 0.025 ml of this mixture. The polysaccharide was spectrophotometrically quantified at 595 nm using a standard starch curve (1-10 mg/ml). The 100% starch value was that assessed in the initial culture medium which was used to carry out the inoculum. By using this methodology, a decrease of the starch in the extracellular medium for the first 30 hours of culture was not observed. 10, 20, 40 and 60% reductions of the polysaccharide concentration were obtained at 50, 60, 70 and 80 hours of culture, respectively. The last value, 60%, remained constant during prolonged growths of up to 300 hours.

| Compound | composition of the system [1] [g/L] | Composition of the reaction mixture ([1]; reaction time 27 h) [grams/liter] | Composition of the reaction mixture ([1]; reaction time 117 h) [grams/liter] | Composition of the reaction mixture ([1]; reaction time 143 h) [grams/liter] | Composition of the reaction mixture ([1]; reaction time 216 h) [grams/liter] | Composition of the reaction mixture ([1]; reaction time 288 h) [grams/liter] | hydrolytic activity observed on substrate [3] | Vmax [4] [μg glucose min^−1] | Specific activity [2] [U/μg] | Specific activity [3] [U/μg] | also measured |
| --- | --- | --- | --- | --- | --- | --- | --- | --- | --- | --- | --- |
| OC[C@H]1O[C@H](OC[C@H]2O[C@H](O[C@H]3[C@H](O)[C@@H](O)[C@@H](O[C@H]4[C@H](O)[C@@H](O)[C@@H](O)O[C@@H]4CO)O[C@@H]3CO)[C@H](O)[C@@H](O)[C@@H]2O)[C@H](O)[C@@H](O)[C@@H]1O [compound 7, α-D-Glu-(1→6)-α-D-Glu-(1→4)-α-D-Glu-(1→4)-α-D-Glu] | 17.6 | 0 | 8.8 | 10.1 | 14.5 | 17.6 |  |  |  |  |  |
| OC[C@H]1O[C@H](OC[C@H]2OC(O)[C@H](O)[C@@H](O)[C@@H]2O)[C@H](O)[C@@H](O)[C@@H]1O (stereo partly shown) [isomaltose] | 14.4 | 0 | 12.7 | 12.4 | 13.1 | 14.4 | No activity |  |  |  | α-glucosidase activity detected on substrate [2]: not detected |
| OC[C@H]1O[C@H](OC[C@H]2O[C@H](OC[C@H]3OC(O)[C@H](O)[C@@H](O)[C@@H]3O)[C@H](O)[C@@H](O)[C@@H]2O)[C@H](O)[C@@H](O)[C@@H]1O (stereo partly shown) [isomaltotriose] |  |  |  |  |  |  | No activity |  |  |  | α-glucosidase activity detected on substrate [2]: not detected |
| OC[C@H]1O[C@H](O[C@H]2[C@H](O)[C@@H](O)[C@@H](O[C@H]3[C@H](O)[C@@H](O)[C@@H](O[C@H]4[C@H](O)[C@@H](O)[C@@H](O[C@H]5[C@H](O)[C@@H](O)[C@@H](O[C@H]6[C@H](O)[C@@H](O)[C@@H](O[C@H]7[C@H](O)[C@@H](O)C(O)O[C@@H]7CO)O[C@@H]6CO)O[C@@H]5CO)O[C@@H]4CO)O[C@@H]3CO)O[C@@H]2CO)[C@H](O)[C@@H](O)[C@@H]1O (stereo partly shown) [maltoheptose] |  |  |  |  |  |  |  | 15 | 24 | 997 |  |
| OC[C@H]1O[C@H](O[C@H]2[C@H](O)[C@@H](O)[C@@H](O[C@H]3[C@H](O)[C@@H](O)[C@@H](O[C@H]4[C@H](O)[C@@H](O)C(O)O[C@@H]4CO)O[C@@H]3CO)O[C@@H]2CO)[C@H](O)[C@@H](O)[C@@H]1O (stereo partly shown) [maltotetraose] | 15.4 | 0 | 11.0 | 12.4 | 15.1 | 15.4 |  |  |  |  |  |
| OC[C@H]1O[C@H](O[C@H]2[C@H](O)[C@@H](O)[C@@H](O[C@H]3[C@H](O)[C@@H](O)C(O)O[C@@H]3CO)O[C@@H]2CO)[C@H](O)[C@@H](O)[C@@H]1O (stereo partly shown) [maltotriose] | 35.9 | 26.3 | 42.6 | 42.8 | 39.3 | 35.9 |  | 12 | 18 | 647 |  |
| OC[C@H]1O[C@H](OC[C@H]2O[C@H](O[C@H]3[C@H](O)[C@@H](O)C(O)O[C@@H]3CO)[C@H](O)[C@@H](O)[C@@H]2O)[C@H](O)[C@@H](O)[C@@H]1O (stereo partly shown) [panose] | 21.2 | 5.7 | 14.7 | 16.1 | 18.9 | 21.2 |  |  |  |  |  |
| dextran |  |  |  |  |  |  | No activity |  |  |  | α-glucosidase activity detected on substrate [2]: not detected |
| glycogen |  |  |  |  |  |  |  |  |  | 197 |  |
| maltodextrin |  |  |  |  |  |  |  |  | 21 | 747 |  |
| maltose | 69.2 | 183.4 | 103.0 | 94.4 | 78.1 | 69.2 |  | 23 | 30 | 1172 |  |
| pullulan |  |  |  |  |  |  | No activity |  |  |  |  |
| starch |  |  |  |  |  |  |  | 4.29 | 23 |  | Kcat [4]: 1.43 s⁻¹; Km [4]: 880 µM; reduction of the polysaccharide concentration (X. dendrorhous MYA-131; 50 hours of culture): 10%; reduction of the polysaccharide concentration (X. dendrorhous MYA-131; 60 hours of culture): 20%; reduction of the polysaccharide concentration (X. dendrorhous MYA-131; 70 hours of culture): 40%; reduction of the polysaccharide concentration (X. dendrorhous MYA-131; 80 hours of culture, remained constant up to 300 hours): 60%; decrease of the starch in the extracellular medium (X. dendrorhous MYA-131; first 30 hours of culture): not observed |
